What was measured:
[1] = test system: mice after surgical implementation of hindlimb ischemia; assay: Homing of injected GFP BMC to ischemic hindlimb muscle; format: in vivo, mouse; conditions: SDF-1 protein 100 ng injected into ischemic hindlimb muscle; treated and untreated cells
Protocol: SDF1 protein was also injected into the ischemic hindlimb muscle to enhance BMC homing. SDF-1 protein (100 ng) was injected into the ischemic hindlimb muscle of WT BL6 mice twice at consecutive days after the surgery. The hindlimb muscles were recovered 7 days after the cell injection, stained with DAPI for nucleus (light white), and examined for GFP cells (bright white, arrow pointed) incorporation under fluorescent microscopy. (A) untreated BMC, B) Treated BMC, C) Untreated BMC+SDF-1, D) Treated BMC+SDF-1. E) The incorporated GFP cells were quantified as cells per high power field (HPF). *P<0.05, and **P<0.01 versus all other groups (n=6).

[2] = test system: BMC; assay: BMC migration towards SDF-1, modified Boyden chamber assay; format: cell-based, mouse; conditions: inhibitor added to upper chamber along with treated BMC; p<0.05
Protocol: BMC migration towards SDF-1 was determined using a modified Boyden chamber assay. BMC were pre-incubated with either PBS or the invented solution for 4 hours at 37 deg.C. and transferred to the upper chamber of inserts in a 24-well plate containing DMEM and 100 ng/ml SDF-1. Migrated cells were counted after 6 hrs incubation at 37° C. Inhibitors AMD3100, LY294002, L-NMMA, and anti-CXCR4 antibody were added to the upper chamber along with BMC.

| Molecule | effect of exogenous SDF-1 on homing of injected BMC [1] | mobility of the treated BMC on addition of inhibitor [2] |
| --- | --- | --- |
| SDF-1: stromal cell derived factor-1, chemotactic cytokine, protein injected into ischemic hindlimb muscle | homed more efficiently |  |
| CNC(=N)NCCC[C@H](N)C(=O)O [L-NNMA] |  | significantly reduced |
| c1cc(CN2CCCNCCNCCCNCC2)ccc1CN1CCCNCCNCCCNCC1 [AMD3100] |  | significantly reduced |
